We go through 9 compounds from US10513521B2, “Compositions and methods for inhibiting BMP” (The Brigham and Women's Hospital, Inc., priority 2014, dated 2019).

The target in one assay is T1, ALK5 (Homo sapiens, UniProt P36897).
T1 sequence (P36897 34-503): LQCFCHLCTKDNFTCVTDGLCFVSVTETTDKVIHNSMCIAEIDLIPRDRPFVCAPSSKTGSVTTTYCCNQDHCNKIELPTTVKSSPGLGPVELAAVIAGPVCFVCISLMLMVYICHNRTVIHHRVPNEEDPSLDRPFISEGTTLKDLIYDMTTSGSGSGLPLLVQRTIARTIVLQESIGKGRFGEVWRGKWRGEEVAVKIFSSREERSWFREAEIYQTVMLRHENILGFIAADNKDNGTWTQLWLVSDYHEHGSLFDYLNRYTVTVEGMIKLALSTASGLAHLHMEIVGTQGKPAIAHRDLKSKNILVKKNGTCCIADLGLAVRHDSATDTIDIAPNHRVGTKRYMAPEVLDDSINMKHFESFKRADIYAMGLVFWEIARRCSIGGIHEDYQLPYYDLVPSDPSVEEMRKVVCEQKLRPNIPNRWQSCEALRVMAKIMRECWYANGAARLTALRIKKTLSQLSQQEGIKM
Nature of the assay: TR-FRET enzymatic ALK kinase assay, ALK5. A general note: In TR-FRET formats the signal depends on donor and acceptor labels being close together.

For assay [1], the target named is T2, ALK2 (Mus musculus, UniProt P37172).
T2 construct: The C2C12 cell line was selected for the measurement of ALK2 activity using BMP6 as the agonist; host or cells: C2C12
T2 sequence (P37172 21-509): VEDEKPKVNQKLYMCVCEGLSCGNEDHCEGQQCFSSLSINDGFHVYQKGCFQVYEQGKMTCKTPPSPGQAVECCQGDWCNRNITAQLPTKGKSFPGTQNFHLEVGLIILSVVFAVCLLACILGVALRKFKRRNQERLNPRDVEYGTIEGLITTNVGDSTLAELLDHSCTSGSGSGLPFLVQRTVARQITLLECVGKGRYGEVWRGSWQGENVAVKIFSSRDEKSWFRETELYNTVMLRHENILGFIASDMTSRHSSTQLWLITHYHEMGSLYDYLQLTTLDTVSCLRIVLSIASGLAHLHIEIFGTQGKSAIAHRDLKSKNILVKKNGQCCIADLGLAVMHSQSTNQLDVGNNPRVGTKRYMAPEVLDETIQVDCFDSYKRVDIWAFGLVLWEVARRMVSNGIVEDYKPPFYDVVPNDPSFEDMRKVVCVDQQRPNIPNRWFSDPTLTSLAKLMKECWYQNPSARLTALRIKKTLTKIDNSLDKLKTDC
In words: HTRF pSMAD1 cell-based ALK2 assay (C2C12 cells, BMP6 as agonist). The note with it: BMP6. How it is done:
2. HTRF Cell-Based ALK1 and ALK2 Assays in 384-Well Plate Format We have developed a cell based ALK1 kinase assay and a cell-based ALK2 assay. The BAOEC cell line was employed for the measurement of ALK1 activity using BMP9 as the agonist. The C2C12 cell line was selected for the measurement of ALK2 activity using BMP6 as the agonist. The kinase specificity was defined by the specific cell line and agonist. The kinase activity was determined by the status of SMD 1/5/8 phosphorylation stimulated by the agonist.
HyClone Fetal Bovine Serum was obtained from GE healthcare life sciences (Logan, Utah). BMP6 and BMP9 were purchased from R&D System. […] The compound plates and the white solid MB assay plates were purchased from Greiner Bio-one (Monroe, N.C.).
HTRF optimization experiments were performed in 384 well plate format. […] Pre-starved cells were then plated in 384 well plate in the starvation medium (containing in 0.1% FBS). After 4 hours, compounds were added to the assay plate and incubated for 30 minutes. The assay plate was then added with BMP6 for C2C12 cells or BMP9 for BAOEC cells and incubated for 30 minutes.
HTRF assay was performed to measure the status of SMAD 1 phosphorylation after stimulated with the agonist (Table 3). This HTRF phospho SMAD1 cell assay was developed and optimized for the homogenous detection of phospho SMAD 1 levels in cells. […] The plate was incubated at room temperature for overnight.

The next assay concerns the target ALK1 (Homo sapiens, UniProt P37023). In words: TR-FRET enzymatic ALK kinase assay, ALK1.
In another assay the target is T3, ALK4 (Homo sapiens, UniProt P36896).
T3 sequence (P36896 24-505): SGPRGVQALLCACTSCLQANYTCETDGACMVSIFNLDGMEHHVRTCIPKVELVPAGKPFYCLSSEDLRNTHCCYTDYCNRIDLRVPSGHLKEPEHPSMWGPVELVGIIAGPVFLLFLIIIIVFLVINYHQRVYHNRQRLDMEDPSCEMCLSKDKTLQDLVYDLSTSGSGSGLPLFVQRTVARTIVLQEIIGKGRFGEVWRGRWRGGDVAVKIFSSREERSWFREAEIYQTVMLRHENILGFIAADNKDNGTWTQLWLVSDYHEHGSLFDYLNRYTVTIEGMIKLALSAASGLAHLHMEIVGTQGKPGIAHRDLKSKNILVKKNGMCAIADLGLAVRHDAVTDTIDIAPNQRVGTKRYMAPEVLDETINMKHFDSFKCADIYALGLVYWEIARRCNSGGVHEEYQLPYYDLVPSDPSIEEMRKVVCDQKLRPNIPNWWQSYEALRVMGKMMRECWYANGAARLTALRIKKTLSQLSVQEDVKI
Nature of the assay: TR-FRET enzymatic ALK kinase assay, ALK4.

A further assay addresses ALK6 (Homo sapiens, UniProt O00238). In words: TR-FRET enzymatic ALK kinase assay, ALK6.
Assay [2] concerns the target T4, ALK2 (Homo sapiens, UniProt Q04771).
T4 sequence (Q04771 21-509): T2 sequence (P37172 21-509) with V1M, Q10P, I121L, E162D, S310P
In words: TR-FRET enzymatic ALK kinase assay, ALK2.
Procedure: (§1) Briefly, the ALKs enzymatic assay was initiated by dispense 2.5 μl enzyme in 1× kinase reaction buffer. The assay plate was then added with compounds followed by incubation at room temperature for 10 minutes. Then 2.5 μl/well substrate was added.

A further assay addresses ALK3 (Homo sapiens, UniProt P36894). Nature of the assay: TR-FRET enzymatic ALK kinase assay, ALK3.
Setting [3] is: Cell IC50 BMP6, cell-based assay.
[4] abbreviates: cell-based assay, read-out: Cell IC50 BMP6.

A word on the IC50: it is the concentration at which inhibition is half-maximal.

Where a chain is given by its changes, count along the chain named. Like-named read-outs stand apart in the source and are kept apart here.

ALK6, sequence (O00238 14-502): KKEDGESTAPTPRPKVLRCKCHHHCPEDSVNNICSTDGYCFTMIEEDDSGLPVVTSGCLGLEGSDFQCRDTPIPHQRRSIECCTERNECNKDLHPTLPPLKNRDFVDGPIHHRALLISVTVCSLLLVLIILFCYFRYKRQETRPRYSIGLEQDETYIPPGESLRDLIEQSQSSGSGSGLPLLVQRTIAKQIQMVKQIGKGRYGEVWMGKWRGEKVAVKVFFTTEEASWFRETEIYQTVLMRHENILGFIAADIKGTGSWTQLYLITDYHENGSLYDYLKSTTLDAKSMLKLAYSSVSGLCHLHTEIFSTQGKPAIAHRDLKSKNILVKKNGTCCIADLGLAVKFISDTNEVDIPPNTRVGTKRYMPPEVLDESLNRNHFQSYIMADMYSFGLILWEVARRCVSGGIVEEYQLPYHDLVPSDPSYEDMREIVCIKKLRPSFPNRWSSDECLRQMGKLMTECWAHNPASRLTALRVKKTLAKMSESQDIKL
ALK3, sequence (P36894 24-532): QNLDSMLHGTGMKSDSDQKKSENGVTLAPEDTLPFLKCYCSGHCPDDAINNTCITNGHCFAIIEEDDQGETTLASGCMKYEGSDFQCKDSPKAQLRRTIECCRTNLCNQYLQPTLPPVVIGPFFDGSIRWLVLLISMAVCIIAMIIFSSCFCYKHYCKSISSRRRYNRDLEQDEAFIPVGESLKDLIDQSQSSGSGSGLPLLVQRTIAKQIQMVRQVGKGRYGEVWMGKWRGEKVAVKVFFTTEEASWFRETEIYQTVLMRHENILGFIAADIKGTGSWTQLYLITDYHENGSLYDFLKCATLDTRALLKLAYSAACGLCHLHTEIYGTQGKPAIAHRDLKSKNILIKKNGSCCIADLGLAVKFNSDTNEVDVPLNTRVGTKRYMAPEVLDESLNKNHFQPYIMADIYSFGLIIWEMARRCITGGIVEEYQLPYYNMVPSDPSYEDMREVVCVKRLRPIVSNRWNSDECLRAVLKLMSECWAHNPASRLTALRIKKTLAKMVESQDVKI
ALK1, sequence (P37023 22-503): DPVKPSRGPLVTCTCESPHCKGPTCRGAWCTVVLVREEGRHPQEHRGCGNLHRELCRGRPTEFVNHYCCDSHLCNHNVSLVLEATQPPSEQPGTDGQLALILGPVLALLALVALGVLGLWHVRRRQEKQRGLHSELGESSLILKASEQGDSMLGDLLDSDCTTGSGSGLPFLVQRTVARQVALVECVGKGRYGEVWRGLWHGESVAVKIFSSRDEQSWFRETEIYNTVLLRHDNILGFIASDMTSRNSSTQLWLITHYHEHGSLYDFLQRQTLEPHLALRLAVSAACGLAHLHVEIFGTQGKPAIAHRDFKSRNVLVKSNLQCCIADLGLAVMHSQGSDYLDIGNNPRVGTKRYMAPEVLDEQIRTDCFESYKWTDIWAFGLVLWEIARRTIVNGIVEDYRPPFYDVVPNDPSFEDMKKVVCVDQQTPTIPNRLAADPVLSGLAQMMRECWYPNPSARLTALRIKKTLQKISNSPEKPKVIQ
Procedure for ALK1: as §1
Procedure for ALK3: as §1
Procedure for ALK4: as §1
Procedure for ALK5: Six ALK kinase enzyme assays were developed for determination of compound activities on ALK1, ALK2, ALK3, ALK4, ALK5 and ALK6.
as §1
Procedure for ALK6: as §1

On to `NS(=O)(=O)c1ccc(-c2cnn3cc(-c4ccc(N5CCNCC5)nc4)cnc23)c2ccccc12` [Compound 49, 4-(6-(6-(piperazin-1-yl)pyridin-3-yl)pyrazolo[1,5-a]pyrimidin-3-yl)naphthalene-1-sulfonamide], for which the IC50 was above 10 µM on ALK5; 0.316 µM on ALK2 [1] (setting [3]); 1.7 µM at ALK1; above 10 µM against ALK4; above 10 µM against ALK6.

For `CC(C)(CN1CCCCC1)Oc1ccc(-c2cnc3c(-c4ccc(S(N)(=O)=O)c5ccccc45)cnn3c2)cc1` [Compound 52, 4-(6-(4-((2-methyl-1-(piperidin-1-yl)propan-2-yl)oxy)phenyl)pyrazolo[1,5-a]pyrimidin-3-yl)naphthalene-1-sulfonamide], the IC50 on ALK5 was above 10 µM; at ALK2 [1] (setting [3]), 0.008 µM; against ALK1 it was 0.17 µM; against ALK4, above 10 µM; against ALK6 it was above 10 µM.

In the case of `C[C@@H]1CNC[C@H](C)N1c1ccc(-c2cnc3c(-c4cccc(S(N)(=O)=O)c4)cnn3c2)cc1` [Compound 60, 3-(6-(4-((2R,6S)-2,6-dimethylpiperazin-1-yl)phenyl)pyrazolo[1,5-a]pyrimidin-3-yl)benzenesulfonamide], the IC50 against ALK5 is above 10 µM; at ALK2 [1] (setting [4]), 0.609 µM; at ALK1, 0.21 µM; at ALK4, above 10 µM; at ALK6 it was above 10 µM.

For the compound `CS(=O)(=O)c1cccc(-c2cnn3cc(-c4ccc(OCCn5ccnc5)cc4)cnc23)c1` [Compound 102, 6-(4-(2-(1H-imidazol-1-yl)ethoxy)phenyl)-3-(3-(methylsulfonyl)phenyl)pyrazolo[1,5-a]pyrimidine], the IC50 at ALK2 [1] (setting [4]) is 0.225 µM.

With `C[C@@H](O)c1cccc(-c2cnn3cc(-c4ccc(CCN5CCCC(O)C5)cc4)cnc23)c1` (stereo partly drawn) [Compound 157], the IC50 was above 10 µM against ALK5; 0.76 µM against ALK1; above 10 µM at ALK4; above 10 µM at ALK6; 0.12 µM on ALK2 [2]; 5.9 µM at ALK3.

As to `CS(=O)(=O)c1cccc(-c2cnn3cc(-c4ccc(CCN5CCCC(O)C5)cc4)cnc23)c1` (stereo not drawn) [Compound 141, 1-(4-(3-(3-(methylsulfonyl)phenyl)pyrazolo[1,5-a]pyrimidin-6-yl)phenethyl)piperidin-3-ol], the IC50 against ALK5 was above 10 µM; on ALK1, 0.75 µM; against ALK4, above 10 µM; against ALK6, above 10 µM; at ALK2 [2] it was 0.098 µM; against ALK3, 5.9 µM.

On to `NC(c1cccc(-c2cnn3cc(-c4ccc(OCCN5CCCCC5)cc4)cnc23)c1)C(F)(F)F` (stereo not drawn) [Compound 153, 2,2,2-trifluoro-1-(3-(6-(4-(2-(piperidin-1-yl)ethoxy)phenyl)pyrazolo[1,5-a]pyrimidin-3-yl)phenyl)ethanamine], for which the IC50 against ALK5 is above 10 µM; against ALK1, 1.4 µM; at ALK4 it was above 10 µM; against ALK6, above 10 µM; against ALK2 [2], 0.11 µM; on ALK3, 4.3 µM.

`C[C@@H](O)c1cccc(-c2cnn3cc(-c4ccc(CCN5CCC(O)C5)cc4)cnc23)c1` (stereo partly drawn) [Compound 155, 1-(4-(3-(3-((R)-1-hydroxyethyl)phenyl)pyrazolo[1,5-a]pyrimidin-6-yl)phenethyl)pyrrolidin-3-ol]: the IC50 against ALK5 was above 10 µM; at ALK1 it was 0.82 µM; against ALK4, above 10 µM; against ALK6, above 10 µM; at ALK2 [2] it was 0.14 µM; on ALK3 it was 7.3 µM.

Consider `C[C@@H]1CNC[C@H](C)N1c1ccc(-c2cnc3c(-c4ccc(S(N)(=O)=O)c(N)c4)cnn3c2)cc1` [Compound 57, 2-amino-4-(6-(4-((2R,6S)-2,6-dimethylpiperazin-1-yl)phenyl)pyrazolo[1,5-a]pyrimidin-3-yl)benzenesulfonamide], for which the IC50 against ALK5 was above 10 µM; at ALK2 [1] (setting [4]), 0.75 µM; against ALK1, 0.76 µM; against ALK4, above 10 µM; against ALK6, above 10 µM.
